Test results taken from patent publication US10165779B2, “Substituted pyrazolylpyrazole derivative and use of same as herbicide” (KYOYU AGRI CO., LTD., priority 2015, dated 2019).

Tests used:
Assay type in all cases: in vivo
[1] = system: Galinsoga parviflora; test: Weed foliar treatment test (Test 4, 4.0 to 5.0 leaf stage); conditions: 10 g a.i./10a; foliar spray at 4.0 to 5.0 leaf stage of Digitaria ciliaris; 20 days
Protocol: (§1) Field soil was filled into a 1/4500 are pot followed by seeding with Digitaria ciliaris and Galinsoga parviflora, covering with soil and cultivating in a glass greenhouse at an average atmospheric temperature of 25° C.
(§2) Wettable powders of Target Compound (I) shown in Table 1 prepared in compliance with the preparation examples were diluted with water to the prescribed amount of chemical and uniformly sprayed onto the weeds using 100 liters of sprayed water per 10 are when Digitaria ciliaris had grown to the 4.0 to 5.0 leaf stage (plant height: 10 cm to 15 cm).
(§3) After treating for 20 days in a glass greenhouse at an average atmospheric temperature of 25° C., the herbicidal efficacy thereof was investigated.
(§4) Evaluation of herbicidal efficacy was carried out in the same manner as the above-mentioned Test Example 1.

[2] = system: Digitaria ciliaris; test: as above; conditions: 10 g a.i./10a; foliar spray at 4.0 to 5.0 leaf stage of Digitaria ciliaris (plant height 10 cm to 15 cm); 20 days
Protocol: as §1, §2, §3, §4

[3] = system: Scirpus juncoides; test: Paddy herbicidal activity test; conditions: irrigated paddy pot, 30 days
Protocol: (§5) After treating for 30 days in a glass greenhouse at an average atmospheric temperature of 30° C., the herbicidal efficacy thereof was investigated. Evaluation of herbicidal efficacy was carried out by comparing growth inhibition rate (%) with an untreated group, while evaluation of phytotoxicity was carried out by comparing growth inhibition rate (%) with the state of a complete eradication group, and were evaluated at 11 levels indicated below. […] 2: 20% to less than 30% 3: 30% to less than 40% 4: 40% to less than 50% 5: 50% to less than 60% 6: 60% to less than 70% 7: 70% to less than 80% […]

[4] = system: Echinochloa crus-galli; test: Paddy herbicidal activity test; conditions: irrigated paddy pot, treated at 3.5 leaf stage of Echinochloa crus-galli, 30 days
Protocol: as §5

[5] = system: Monochoria vaginalis; test: Paddy herbicidal activity test; conditions: irrigated paddy pot, 30 days
Protocol: as §5

[6] = system: Amaranthus retroflexus; test: Weed foliar treatment test (Test 3, 1.0 to 2.0 leaf stage); conditions: foliar spray at 1.0 to 2.0 leaf stage of Digitaria ciliaris, 3 weeks
Protocol: (§6) Soil was filled into a 1/6000 are pot followed by seeding with Digitaria ciliaris, Chenopodium album and Amaranthus retroflexus, covering with soil, and cultivating in a glass greenhouse at an average atmospheric temperature of 25° C.
as §2, with “150” for “100”, “1.0” for “4.0”, “2.0” for “5.0”, “stage.” for “stage (plant height: 10 cm to 15 cm).”
(§7) After treating for 3 weeks in a glass greenhouse at an average atmospheric temperature of 25° C., the herbicidal efficacy thereof was investigated.
as §4

[7] = system: Digitaria ciliaris; test: as above; conditions: foliar spray at 1.0 to 2.0 leaf stage of Digitaria ciliaris, 3 weeks
Protocol: as §6
as §2, with “150” for “100”, “1.0” for “4.0”, “2.0” for “5.0”, “stage.” for “stage (plant height: 10 cm to 15 cm).”
as §7, §4

[8] = system: Chenopodium album; test: as above; conditions: foliar spray at 1.0 to 2.0 leaf stage of Digitaria ciliaris, 3 weeks
Protocol: as §6
as §2, with “150” for “100”, “1.0” for “4.0”, “2.0” for “5.0”, “stage.” for “stage (plant height: 10 cm to 15 cm).”
as §7, §4

[9] = system: Amaranthus retroflexus; test: Farming soil treatment test; conditions: soil surface spray prior to weed growth, 30 days
Protocol: (§8) Field soil was filled into a 1/6000 are pot followed by seeding with Digitaria cilaris, Chenopodium album and Amaranthus retroflexus and covering with soil.
(§9) Wettable powders of compounds of formula (I) shown in Table 1 prepared in compliance with the preparation examples were diluted. with water to the prescribed amount of chemical and uniformly sprayed onto each soil surface layer using 100 liters of sprayed water per 10 are prior to weed growth following seeding.
(§10) After treating for 30 days in a glass greenhouse at an average atmospheric temperature of 30° C., the herbicidal efficacy thereof was investigated.
as §4

[10] = system: Digitaria ciliaris; test: Farming soil treatment test; conditions: soil surface spray prior to weed growth, 30 days
Protocol: as §8, §9, §10, §4

[11] = system: Chenopodium album; test: Farming soil treatment test; conditions: soil surface spray prior to weed growth, 30 days
Protocol: as §8, §9, §10, §4

[12] = system: Oryza sativa; test: Paddy herbicidal activity test, phytotoxicity to transplanted rice; conditions: rice transplanted at 2.0 leaf stage, 30 days
Protocol: as §5

## CCOC(=O)N(C(=O)OC)c1c(C#N)cnn1-c1nn2c(c1Cl)CCCC2 [Compound 1, Methyl N-(3-chloro-4,5,6,7-tetrahydropyrazolo[1,5-a]pyridine-2-yl)-4-cyanopyr azol-5-yl)-N-ethoxycarbonyl Carbamate]
[1]
  herbicidal efficacy Galinsoga parviflora: 10 (10: 100%)
[2]
  herbicidal efficacy Digitaria ciliaris: 9 (9: 90% to less than 100%)
[3]; 1g a.i./10a
  herbicidal efficacy Scirpus juncoides: 9 (9: 90% to less than 100%)
[3]; 5g a.i./10a
  herbicidal efficacy Scirpus juncoides: 9 (9: 90% to less than 100%)
[4]; 1g a.i./10a
  herbicidal efficacy Echinochloa crus-galli: 9 (9: 90% to less than 100%)
[4]; 5g a.i./10a
  herbicidal efficacy Echinochloa crus-galli: 10 (10: 100%)
[5]; 1g a.i./10a
  herbicidal efficacy Monochoria vaginalis: 10 (10: 100%)
[5]; 5g a.i./10a
  herbicidal efficacy Monochoria vaginalis: 10 (10: 100%)
[6]; 5g a.i./10a
  herbicidal efficacy Amaranthus retroflexus: 10 (10: 100%)
[6]; 10g a.i./10a
  herbicidal efficacy Amaranthus retroflexus: 10 (10: 100%)
[7]; 5g a.i./10a
  herbicidal efficacy Digitaria ciliaris: 9 (9: 90% to less than 100%)
[7]; 10g a.i./10a
  herbicidal efficacy Digitaria ciliaris: 10 (10: 100%)
[8]; 5g a.i./10a
  herbicidal efficacy Chenopodium album: 10 (10: 100%)
[8]; 10g a.i./10a
  herbicidal efficacy Chenopodium album: 10 (10: 100%)
[9]; 5g a.i./10a
  herbicidal efficacy Amaranthus retroflexus: 9 (9: 90% to less than 100%)
[9]; 10g a.i./10a
  herbicidal efficacy Amaranthus retroflexus: 9 (9: 90% to less than 100%)
[10]; 5g a.i./10a
  herbicidal efficacy Digitaria ciliaris: 9 (9: 90% to less than 100%)
[10]; 10g a.i./10a
  herbicidal efficacy Digitaria ciliaris: 9 (9: 90% to less than 100%)
[11]; 5g a.i./10a
  herbicidal efficacy Chenopodium album: 9 (9: 90% to less than 100%)
[11]; 10g a.i./10a
  herbicidal efficacy Chenopodium album: 10 (10: 100%)

## COC(=O)N(C(=O)OC)c1c([N+](=O)[O-])cnn1-c1nn2c(c1Cl)CCCC2 [Compound 3]
[1]
  herbicidal efficacy Galinsoga parviflora: 10 (10: 100%)
[2]
  herbicidal efficacy Digitaria ciliaris: 10 (10: 100%)

## COC(=O)N(C(=O)OC)c1c(C#N)cnn1-c1nn2c(c1Br)CCCC2 [Compound 4]
[1]
  herbicidal efficacy Galinsoga parviflora: 10 (10: 100%)
[2]
  herbicidal efficacy Digitaria ciliaris: 10 (10: 100%)
[3]; 1g a.i./10a
  herbicidal efficacy Scirpus juncoides: 9 (9: 90% to less than 100%)
[3]; 5g a.i./10a
  herbicidal efficacy Scirpus juncoides: 10 (10: 100%)
[4]; 1g a.i./10a
  herbicidal efficacy Echinochloa crus-galli: 10 (10: 100%)
[4]; 5g a.i./10a
  herbicidal efficacy Echinochloa crus-galli: 10 (10: 100%)
[5]; 1g a.i./10a
  herbicidal efficacy Monochoria vaginalis: 10 (10: 100%)
[5]; 5g a.i./10a
  herbicidal efficacy Monochoria vaginalis: 10 (10: 100%)
[12]; 1g a.i./10a
  phytotoxicity Oryza sativa: 0 (0 (exponent): 0% to less than 10% (growth inhibition rate))
[12]; 5g a.i./10a
  phytotoxicity Oryza sativa: 1 (1: 10% to less than 20%)
[6]; 5g a.i./10a
  herbicidal efficacy Amaranthus retroflexus: 10 (10: 100%)
[6]; 10g a.i./10a
  herbicidal efficacy Amaranthus retroflexus: 10 (10: 100%)
[7]; 5g a.i./10a
  herbicidal efficacy Digitaria ciliaris: 10 (10: 100%)
[7]; 10g a.i./10a
  herbicidal efficacy Digitaria ciliaris: 10 (10: 100%)
[8]; 5g a.i./10a
  herbicidal efficacy Chenopodium album: 10 (10: 100%)
[8]; 10g a.i./10a
  herbicidal efficacy Chenopodium album: 10 (10: 100%)
[9]; 5g a.i./10a
  herbicidal efficacy Amaranthus retroflexus: 10 (10: 100%)
[9]; 10g a.i./10a
  herbicidal efficacy Amaranthus retroflexus: 10 (10: 100%)
[10]; 5g a.i./10a
  herbicidal efficacy Digitaria ciliaris: 10 (10: 100%)
[10]; 10g a.i./10a
  herbicidal efficacy Digitaria ciliaris: 10 (10: 100%)
[11]; 5g a.i./10a
  herbicidal efficacy Chenopodium album: 9 (9: 90% to less than 100%)
[11]; 10g a.i./10a
  herbicidal efficacy Chenopodium album: 10 (10: 100%)

## COC(=O)N(C(=O)OC)c1c([N+](=O)[O-])cnn1-c1nn2c(c1Br)CCCC2 [Compound 5]
[1]
  herbicidal efficacy Galinsoga parviflora: 10 (10: 100%)
[2]
  herbicidal efficacy Digitaria ciliaris: 9 (9: 90% to less than 100%)
[3]; 1g a.i./10a
  herbicidal efficacy Scirpus juncoides: 10 (10: 100%)
[3]; 5g a.i./10a
  herbicidal efficacy Scirpus juncoides: 10 (10: 100%)
[4]; 1g a.i./10a
  herbicidal efficacy Echinochloa crus-galli: 9 (9: 90% to less than 100%)
[4]; 5g a.i./10a
  herbicidal efficacy Echinochloa crus-galli: 9 (9: 90% to less than 100%)
[5]; 1g a.i./10a
  herbicidal efficacy Monochoria vaginalis: 10 (10: 100%)
[5]; 5g a.i./10a
  herbicidal efficacy Monochoria vaginalis: 10 (10: 100%)
[12]; 1g a.i./10a
  phytotoxicity Oryza sativa: 1 (1: 10% to less than 20%)
[12]; 5g a.i./10a
  phytotoxicity Oryza sativa: 1 (1: 10% to less than 20%)
[6]; 5g a.i./10a
  herbicidal efficacy Amaranthus retroflexus: 10 (10: 100%)
[6]; 10g a.i./10a
  herbicidal efficacy Amaranthus retroflexus: 10 (10: 100%)
[7]; 5g a.i./10a
  herbicidal efficacy Digitaria ciliaris: 9 (9: 90% to less than 100%)
[7]; 10g a.i./10a
  herbicidal efficacy Digitaria ciliaris: 10 (10: 100%)
[8]; 5g a.i./10a
  herbicidal efficacy Chenopodium album: 10 (10: 100%)
[8]; 10g a.i./10a
  herbicidal efficacy Chenopodium album: 10 (10: 100%)
[9]; 5g a.i./10a
  herbicidal efficacy Amaranthus retroflexus: 10 (10: 100%)
[9]; 10g a.i./10a
  herbicidal efficacy Amaranthus retroflexus: 10 (10: 100%)
[10]; 5g a.i./10a
  herbicidal efficacy Digitaria ciliaris: 9 (9: 90% to less than 100%)
[10]; 10g a.i./10a
  herbicidal efficacy Digitaria ciliaris: 9 (9: 90% to less than 100%)
[11]; 5g a.i./10a
  herbicidal efficacy Chenopodium album: 10 (10: 100%)
[11]; 10g a.i./10a
  herbicidal efficacy Chenopodium album: 10 (10: 100%)

## CCOC(=O)N(C(=O)OCC)c1c(C#N)cnn1-c1nn2c(c1Cl)CCCC2 [Compound 6]
[1]
  herbicidal efficacy Galinsoga parviflora: 10 (10: 100%)
[2]
  herbicidal efficacy Digitaria ciliaris: 10 (10: 100%)
[3]; 1g a.i./10a
  herbicidal efficacy Scirpus juncoides: 9 (9: 90% to less than 100%)
[3]; 5g a.i./10a
  herbicidal efficacy Scirpus juncoides: 10 (10: 100%)
[4]; 1g a.i./10a
  herbicidal efficacy Echinochloa crus-galli: 10 (10: 100%)
[4]; 5g a.i./10a
  herbicidal efficacy Echinochloa crus-galli: 10 (10: 100%)
[5]; 1g a.i./10a
  herbicidal efficacy Monochoria vaginalis: 10 (10: 100%)
[5]; 5g a.i./10a
  herbicidal efficacy Monochoria vaginalis: 10 (10: 100%)
[12]; 1g a.i./10a
  phytotoxicity Oryza sativa: 0 (0 (exponent): 0% to less than 10% (growth inhibition rate))
[12]; 5g a.i./10a
  phytotoxicity Oryza sativa: 1 (1: 10% to less than 20%)
[6]; 5g a.i./10a
  herbicidal efficacy Amaranthus retroflexus: 10 (10: 100%)
[6]; 10g a.i./10a
  herbicidal efficacy Amaranthus retroflexus: 10 (10: 100%)
[7]; 5g a.i./10a
  herbicidal efficacy Digitaria ciliaris: 10 (10: 100%)
[7]; 10g a.i./10a
  herbicidal efficacy Digitaria ciliaris: 10 (10: 100%)
[8]; 5g a.i./10a
  herbicidal efficacy Chenopodium album: 10 (10: 100%)
[8]; 10g a.i./10a
  herbicidal efficacy Chenopodium album: 10 (10: 100%)
[9]; 5g a.i./10a
  herbicidal efficacy Amaranthus retroflexus: 10 (10: 100%)
[9]; 10g a.i./10a
  herbicidal efficacy Amaranthus retroflexus: 10 (10: 100%)
[10]; 5g a.i./10a
  herbicidal efficacy Digitaria ciliaris: 10 (10: 100%)
[10]; 10g a.i./10a
  herbicidal efficacy Digitaria ciliaris: 10 (10: 100%)
[11]; 5g a.i./10a
  herbicidal efficacy Chenopodium album: 9 (9: 90% to less than 100%)
[11]; 10g a.i./10a
  herbicidal efficacy Chenopodium album: 10 (10: 100%)

## CC(C)OC(=O)N(C(=O)OC(C)C)c1c(C#N)cnn1-c1nn2c(c1Cl)CCCC2 [Compound 12]
[1]
  herbicidal efficacy Galinsoga parviflora: 10 (10: 100%)
[2]
  herbicidal efficacy Digitaria ciliaris: 10 (10: 100%)

## CC(C)COC(=O)N(C(=O)OCC(C)C)c1c(C#N)cnn1-c1nn2c(c1Cl)CCCC2 [Compound 13]
[1]
  herbicidal efficacy Galinsoga parviflora: 10 (10: 100%)
[2]
  herbicidal efficacy Digitaria ciliaris: 10 (10: 100%)

## C=CCOC(=O)N(C(=O)OCC=C)c1c([N+](=O)[O-])cnn1-c1nn2c(c1Cl)CCCC2 [Compound 15]
[1]
  herbicidal efficacy Galinsoga parviflora: 10 (10: 100%)
[2]
  herbicidal efficacy Digitaria ciliaris: 10 (10: 100%)

## CCOC(=O)Nc1c([N+](=O)[O-])cnn1-c1nn2c(c1Cl)CCCC2 [Control agent 2.28, reference compound]
[12]; 1g a.i./10a
  phytotoxicity Oryza sativa: 0 (0 (exponent): 0% to less than 10% (growth inhibition rate))
[12]; 5g a.i./10a
  phytotoxicity Oryza sativa: 1 (1: 10% to less than 20%)
